Data from ChEMBL document CHEMBL1157154, “The synthesis of 5-substituted ring E analogs of methyllycaconitine via the Suzuki-Miyaura cross-coupling reaction” (Bioorg Med Chem, 2008).
pIC50: −log10 of the molar value.

How the values were obtained:
[1] = biological target: Neuronal acetylcholine receptor subunit alpha-7 (Bos taurus) (UniProt P54131); assay: Displacement of [125I]alpha-bungarotoxin from bovine alpha7 nAChR expressed in HEK293 cells at 10 uM; format: cell-based
[2] = biological target: Neuronal acetylcholine receptor subunit alpha-3 (Bos taurus) (UniProt Q07263); assay: Displacement of [3H]epibatidine from bovine […] nAChR expressed in HEK293 cells at 10 uM; format: cell-based
Neuronal acetylcholine receptor subunit alpha-3 (Bos taurus), sequence (Q07263 whole entry): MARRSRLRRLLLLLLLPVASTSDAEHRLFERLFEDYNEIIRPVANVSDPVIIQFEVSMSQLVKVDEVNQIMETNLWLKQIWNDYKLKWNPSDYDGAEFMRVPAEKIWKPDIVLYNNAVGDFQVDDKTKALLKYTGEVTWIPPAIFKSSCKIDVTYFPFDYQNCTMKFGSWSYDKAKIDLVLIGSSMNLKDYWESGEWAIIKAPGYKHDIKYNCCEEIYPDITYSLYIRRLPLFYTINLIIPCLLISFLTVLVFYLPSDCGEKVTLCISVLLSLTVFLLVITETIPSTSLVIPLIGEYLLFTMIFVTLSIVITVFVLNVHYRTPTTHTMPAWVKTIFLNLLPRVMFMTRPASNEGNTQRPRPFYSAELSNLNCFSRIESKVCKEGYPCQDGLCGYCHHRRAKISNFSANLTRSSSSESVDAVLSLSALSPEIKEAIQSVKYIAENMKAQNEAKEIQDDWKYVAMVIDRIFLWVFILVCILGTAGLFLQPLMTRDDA

[3] = Inhibition of nicotin-stimulated neurosecretion in bovine adrenal gland; format: functional, tissue-based, Bos taurus, Adrenal tissue
[4] = biological target: Neuronal acetylcholine receptor subunit alpha-7 (Bos taurus, UniProt P54131); assay: Displacement of [125I]alpha-bungarotoxin from bovine alpha7 nAChR expressed in HEK293 cells; format: cell-based
Neuronal acetylcholine receptor subunit alpha-7, sequence (P54131 whole entry): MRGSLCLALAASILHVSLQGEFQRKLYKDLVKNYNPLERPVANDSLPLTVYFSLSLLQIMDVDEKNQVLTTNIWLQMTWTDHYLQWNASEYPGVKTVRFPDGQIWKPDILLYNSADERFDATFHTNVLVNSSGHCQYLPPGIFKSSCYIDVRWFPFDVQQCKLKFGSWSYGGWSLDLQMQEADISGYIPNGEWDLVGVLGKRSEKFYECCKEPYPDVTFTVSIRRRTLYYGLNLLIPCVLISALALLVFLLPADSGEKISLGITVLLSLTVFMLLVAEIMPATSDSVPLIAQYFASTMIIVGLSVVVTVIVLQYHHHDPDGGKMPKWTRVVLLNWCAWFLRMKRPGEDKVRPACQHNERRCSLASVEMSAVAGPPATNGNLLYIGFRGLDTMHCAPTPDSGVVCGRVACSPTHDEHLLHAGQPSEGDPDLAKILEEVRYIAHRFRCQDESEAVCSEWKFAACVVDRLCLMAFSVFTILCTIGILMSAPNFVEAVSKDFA

[5] = biological target: Neuronal acetylcholine receptor subunit alpha-7 (Bos taurus) (UniProt P54131); assay: Displacement of [125I]alpha-bungarotoxin from bovine alpha7 nAChR expressed in HEK293 cells at 1.0 uM; format: cell-based
[6] = biological target: Neuronal acetylcholine receptor subunit alpha-3 (Bos taurus) (UniProt Q07263); assay: Displacement of [3H]epibatidine from bovine […] nAChR expressed in HEK293 cells at 1.0 uM; format: cell-based

Neuronal acetylcholine receptor subunit alpha-7 (Bos taurus), sequence (P54131 whole entry): as above

Row | SMILES | Activity [1] [%] | Activity [2] [%] | other results
1 | CC1CC(=O)N(c2ccccc2C(=O)OC[C@@H]2C[C@H](C3CCCCC3)CN(CCCc3ccccc3)C2)C1=O (stereo not given in full) | 103 |  | 
2 | CC1CC(=O)N(c2ccccc2C(=O)OC[C@@H]2C[C@H](CCCCCO[Si](C)(C)C(C)(C)C)CN(CCCc3ccccc3)C2)C1=O (stereo not given in full) | 88.8 | 118 | pIC50 [3]: 5.70
3 | CC1CC(=O)N(c2ccccc2C(=O)OC[C@@H]2CCCN(CCCc3ccccc3)C2)C1=O (stereo not given in full) |  |  | pIC50 [4]: 3.75
4 | CC1CC(=O)N(c2ccccc2C(=O)OC[C@@H]2C[C@H](CCc3ccccc3)CN(CCCc3ccccc3)C2)C1=O (stereo not given in full) | 98.8 | 103 | 
5 | CC1CC(=O)N(c2ccccc2C(=O)OC[C@@H]2C[C@H](CC3CCCCC3)CN(CCCc3ccccc3)C2)C1=O (stereo not given in full) | 92.6 |  | 
6 | CCN1C[C@]2(COC(=O)c3ccccc3N3C(=O)C[C@H](C)C3=O)CC[C@H](OC)[C@@]34[C@@H]5C[C@H]6[C@H](OC)[C@@H]5[C@](O)(C[C@@H]6OC)[C@](O)([C@@H](OC)[C@H]23)[C@@H]14 |  |  | Activity [5]: 7.5%; Activity [6]: 50.1%
7 | CC1CC(=O)N(c2ccccc2C(=O)OC[C@@H]2C[C@H](c3ccccc3)CN(CCCc3ccccc3)C2)C1=O (stereo not given in full) | 94.3 | 86.8 | 
8 | CCCCCC[C@H]1C[C@@H](COC(=O)c2ccccc2N2C(=O)CC(C)C2=O)CN(CCCc2ccccc2)C1 (stereo not given in full) | 92.2 | 105 | pIC50 [3]: 5.70
